Common to all, as to type: physicochemical
A short description of series [1]: Color rendering property (hue change under tungsten light versus standard light source, visual). The following applies: hue change under tungsten light compared with standard light source. Further details: key: ∘: Change in hue was small.; Δ: Change in hue was somewhat large.; X: Change in hue was large. As for the experimental part:
(§1) A liquid having the following formulation was prepared and passed through a 0.45 μm membrane filter to obtain an aqueous ink composition for ink jet printers.
(§2) An ink jet recording was conducted on three different papers, i.e. plain papers (Canon printer paper A4 (TLB5A4S)), ink jet papers A (Color BJ Paper LC 101; ex. Canon) and ink jet papers B (coated papers for ink jet printer STX73 A4; ex. Sharp) by means of an ink jet printer (trade name NOVA JET III; ex. ENCAD). The thus-recorded images were tested with respect to the resistances to light and water and a color rendering property.
Discoloration was judged by the visual examination by comparing the hue change under the tungsten light with that under the standard light source.

Series [2] is described as follows: Test for resistance to water of the recorded images (immersion in water, visual examination of dropout). Further details: key to water fastness plain paper: ∘: Less amount of the compound was dropped out.; Δ: About half of the compound was dropped out.; X: Large amount of the compound was dropped out. The following applies: immersed in water 2 minutes with mild stirring, dried; for water fastness ink jet paper A: ink jet print on ink jet paper A; for water fastness ink jet paper B: ink jet print on ink jet paper B; for water fastness plain paper: ink jet print on plain paper. As for the experimental part: as §1, §2
Test specimen was immersed in water contained in a beaker with mild stirring for 2 minutes and dried. Amount of the compound was observed by the visual examination before and after the immersion, and dropout of the compound was judged.

Series [3] is described as follows: Test for resistance to light of the recorded images (carbon arc fade meter, Blue Scale JIS L-0841). The following applies: 20 hours carbon arc fade meter; for light fastness (rank) ink jet paper A: ink jet print on ink jet paper A (Color BJ Paper LC 101, Canon); for light fastness (rank) ink jet paper B: ink jet print on ink jet paper B (coated paper STX73 A4, Sharp); for light fastness (rank) plain paper: ink jet print on plain paper (Canon TLB5A4S). On the procedure:
as §1, §2
The recorded images were irradiated with light for 20 hours by means of a carbon arc fade meter (ex. SUGA Shikenkisha). Light fastness was judged according to the Blue Scale for light resistance standard as defined in JIS L-0841.

For `Nc1cc2c(O)c(N=Nc3ccc(N=Nc4ccc(S(=O)(=O)[O-])cc4)c4ccc(S(=O)(=O)[O-])cc34)c(S(=O)(=O)[O-])cc2cc1S(=O)(=O)[O-].[Na+].[Na+].[Na+].[Na+]` [compound 1, C.I. Food Black 2, reference compound], the color rendering property entry in series [1] is “Δ”. In series [2], the “water fastness ink jet paper A” value is listed as “◯”. For the same molecule, in series [3], the “light fastness (rank) ink jet paper A” value turned out to be 3 rank, the “light fastness (rank) ink jet paper B” value is 4-5 rank and the “light fastness (rank) plain paper” value is listed as 4-5 rank.
Regarding `COc1cc(N=Nc2cc(S(=O)(=O)O)cc3cc(S(=O)(=O)O)cc(O)c23)c(C)cc1N=Nc1c(S(=O)(=O)O)cc2ccc(N=Nc3ccc(N)cc3N)cc2c1O` [compound 0001], the color rendering property entry in series [1] was “◯”. Besides, in series [2], the “water fastness ink jet paper A” value is “◯”, the “water fastness ink jet paper B” value is recorded as “◯” and the “water fastness plain paper” value was “Δ˜◯”. Also, in series [3], the “light fastness (rank) ink jet paper A” value was 4-5 rank, the “light fastness (rank) ink jet paper B” value came to 5 rank and the “light fastness (rank) plain paper” value worked out at 5 rank.
In the case of `Nc1ccc2cc(S(=O)(=O)O)c(N=Nc3ccc(N=Nc4cc(C(=O)O)cc(C(=O)O)c4)c4ccccc34)c(O)c2c1` [compound 2, reference compound], in series [2], the “water fastness ink jet paper A” value is reported as “◯”, the “water fastness ink jet paper B” value is reported as “◯” and the “water fastness plain paper” value is recorded as “◯”. Further, in series [3], the “light fastness (rank) ink jet paper A” value was 2 rank, the “light fastness (rank) ink jet paper B” value is 4 rank and the “light fastness (rank) plain paper” value was found to be 4 rank.
With `COc1cc(N=Nc2cc(S(=O)(=O)O)cc3cc(S(=O)(=O)O)cc(O)c23)c(C)cc1N=Nc1c(S(=O)(=O)O)cc2ccc(N=Nc3ccc(N)cc3O)cc2c1O` [compound 0002], the color rendering property result in series [1] is “◯”. In series [2], the “water fastness ink jet paper A” value is “◯”, the “water fastness ink jet paper B” value is recorded as “◯” and the “water fastness plain paper” value is recorded as “Δ˜◯”. Further, in series [3], the “light fastness (rank) ink jet paper A” value was found to be 4 rank, the “light fastness (rank) ink jet paper B” value turned out to be 5 rank and the “light fastness (rank) plain paper” value is reported as 4-5 rank.
As to `COc1cc(N=Nc2cc(S(=O)(=O)O)cc3cc(S(=O)(=O)O)cc(O)c23)c(C)cc1N=Nc1c(S(=O)(=O)O)cc2ccc(N=Nc3ccc(O)cc3O)cc2c1O` [compound 0003], in series [1], the color rendering property result was “◯”. In addition, in series [2], the “water fastness ink jet paper A” value is listed as “◯”, the “water fastness ink jet paper B” value was “◯” and the “water fastness plain paper” value is given as “Δ”. Moreover, in series [3], the “light fastness (rank) ink jet paper A” value is 3-4 rank, the “light fastness (rank) ink jet paper B” value was 4-5 rank and the “light fastness (rank) plain paper” value is given as 4-5 rank.
As for `COc1cc(N=Nc2cc(S(=O)(=O)O)cc3cc(S(=O)(=O)O)cc(O)c23)c(C)cc1N=Nc1c(S(=O)(=O)O)cc2ccc(N=Nc3cc(S(=O)(=O)O)c(N)cc3N)cc2c1O` [compound 0005], the color rendering property entry in series [1] is “◯”. In series [2], the “water fastness ink jet paper A” value is recorded as “◯”, the “water fastness ink jet paper B” value was “◯” and the “water fastness plain paper” value was “Δ˜◯”. In addition, in series [3], the “light fastness (rank) ink jet paper A” value is 4-5 rank, the “light fastness (rank) ink jet paper B” value was determined as 5 rank and the “light fastness (rank) plain paper” value stood at 5 rank.
As to `COc1cc(N=Nc2cc(S(=O)(=O)O)cc3cc(S(=O)(=O)O)cc(O)c23)c(C)cc1N=Nc1c(S(=O)(=O)O)cc2ccc(N=Nc3ccc(NCC(=O)O)cc3NCC(=O)O)cc2c1O` [compound 0007], the color rendering property result in series [1] is reported as “◯”. In series [2], the “water fastness ink jet paper A” value is on record as “◯”, the “water fastness ink jet paper B” value was “◯” and the “water fastness plain paper” value is listed as “◯”. In series [3], the “light fastness (rank) ink jet paper A” value is reported as 3-4 rank, the “light fastness (rank) ink jet paper B” value amounted to 4 rank and the “light fastness (rank) plain paper” value is 4 rank.
As to `COc1cc(N=Nc2cc(S(=O)(=O)O)cc3cc(S(=O)(=O)O)cc(O)c23)c(NC(C)=O)cc1N=Nc1c(S(=O)(=O)O)cc2ccc(N=Nc3ccc(N)cc3O)cc2c1O` [compound 0011], in series [1], the color rendering property entry is listed as “◯”. In series [2], the “water fastness ink jet paper A” value is “◯”, the “water fastness ink jet paper B” value is “◯” and the “water fastness plain paper” value is given as “Δ˜◯”. Besides, in series [3], the “light fastness (rank) ink jet paper A” value came out at 4 rank, the “light fastness (rank) ink jet paper B” value is recorded as 4 rank and the “light fastness (rank) plain paper” value is 4-5 rank.
In the case of `COc1cc(N=Nc2cc(S(=O)(=O)O)cc3cc(S(=O)(=O)O)cc(O)c23)c(NC(C)=O)cc1N=Nc1c(S(=O)(=O)O)cc2ccc(N=Nc3ccc(O)cc3O)cc2c1O` [compound 0012], in series [1], the color rendering property result is “◯”. Moreover, in series [2], the “water fastness ink jet paper A” value is recorded as “◯”, the “water fastness ink jet paper B” value is “◯” and the “water fastness plain paper” value is reported as “Δ”. In series [3], the “light fastness (rank) ink jet paper A” value is 3-4 rank, the “light fastness (rank) ink jet paper B” value came out at 4 rank and the “light fastness (rank) plain paper” value is 4-5 rank.
For the molecule `COc1cc(N=Nc2cc(S(=O)(=O)O)cc3cc(S(=O)(=O)O)cc(O)c23)c(NC(C)=O)cc1N=Nc1c(S(=O)(=O)O)cc2ccc(N=Nc3cc(S(=O)(=O)O)c(N)cc3N)cc2c1O` [compound 0014], the color rendering property result in series [1] is recorded as “◯”. Also, in series [2], the “water fastness ink jet paper A” value was “◯”, the “water fastness ink jet paper B” value is “◯” and the “water fastness plain paper” value is recorded as “Δ”. Also, in series [3], the “light fastness (rank) ink jet paper A” value was determined as 5 rank, the “light fastness (rank) ink jet paper B” value came out at 5 rank and the “light fastness (rank) plain paper” value was found to be 5 rank.
For `COCCOc1cc(N=Nc2cc(S(=O)(=O)O)cc3cc(S(=O)(=O)O)cc(O)c23)c(NC(C)=O)cc1N=Nc1c(S(=O)(=O)O)cc2ccc(N=Nc3ccc(N)cc3N)cc2c1O` [compound 0019], in series [1], the color rendering property result is “◯”. Also, in series [2], the “water fastness ink jet paper A” value was “◯”, the “water fastness ink jet paper B” value is given as “◯” and the “water fastness plain paper” value is “Δ˜◯”. In series [3], the “light fastness (rank) ink jet paper A” value stood at 5 rank, the “light fastness (rank) ink jet paper B” value was found to be 5 rank and the “light fastness (rank) plain paper” value is reported as 5 rank.
Consider `COCCOc1cc(N=Nc2cc(S(=O)(=O)O)cc3cc(S(=O)(=O)O)cc(O)c23)c(NC(C)=O)cc1N=Nc1c(S(=O)(=O)O)cc2ccc(N=Nc3ccc(N)cc3O)cc2c1O` [compound 0020], for which the color rendering property result in series [1] was “◯”. For the same molecule, in series [2], the “water fastness ink jet paper A” value is listed as “◯”, the “water fastness ink jet paper B” value is given as “◯” and the “water fastness plain paper” value was “Δ˜◯”. Moreover, in series [3], the “light fastness (rank) ink jet paper A” value is 4 rank, the “light fastness (rank) ink jet paper B” value is recorded as 5 rank and the “light fastness (rank) plain paper” value is recorded as 4-5 rank.
`COCCOc1cc(N=Nc2cc(S(=O)(=O)O)cc3cc(S(=O)(=O)O)cc(O)c23)c(NC(C)=O)cc1N=Nc1c(S(=O)(=O)O)cc2ccc(N=Nc3cc(S(=O)(=O)O)c(N)cc3N)cc2c1O` [compound 0022]: the color rendering property entry in series [1] is “◯”. For the same molecule, in series [2], the “water fastness ink jet paper A” value is on record as “◯”, the “water fastness ink jet paper B” value is “◯” and the “water fastness plain paper” value is “Δ˜◯”. In series [3], the “light fastness (rank) ink jet paper A” value came to 5 rank, the “light fastness (rank) ink jet paper B” value is listed as 5 rank and the “light fastness (rank) plain paper” value turned out to be 5 rank.
As to `O=S(=O)(O)c1cc(O)c2c(N=Nc3ccc(N=Nc4c(S(=O)(=O)O)cc5ccc(N=Nc6ccc(O)cc6O)cc5c4O)c4cc(S(=O)(=O)O)ccc34)cc(S(=O)(=O)O)cc2c1` [compound 0025], the color rendering property result in series [1] is “◯”. Further, in series [2], the “water fastness ink jet paper A” value is listed as “◯”, the “water fastness ink jet paper B” value is “◯” and the “water fastness plain paper” value is “x˜Δ”. Further, in series [3], the “light fastness (rank) ink jet paper A” value is reported as 3 rank, the “light fastness (rank) ink jet paper B” value worked out at 4 rank and the “light fastness (rank) plain paper” value is 4-5 rank.
For the molecule `Nc1cc(N)c(S(=O)(=O)O)cc1N=Nc1ccc2cc(S(=O)(=O)O)c(N=Nc3ccc(N=Nc4cc(S(=O)(=O)O)cc5cc(S(=O)(=O)O)cc(O)c45)c4ccc(S(=O)(=O)O)cc34)c(O)c2c1` [compound 0027], the color rendering property result in series [1] is reported as “◯”. In series [2], the “water fastness ink jet paper A” value is on record as “◯”, the “water fastness ink jet paper B” value is listed as “◯” and the “water fastness plain paper” value is “x˜Δ”. Besides, in series [3], the “light fastness (rank) ink jet paper A” value turned out to be 4 rank, the “light fastness (rank) ink jet paper B” value amounted to 5 rank and the “light fastness (rank) plain paper” value is 5 rank.
With `COc1cc(N=Nc2cc(S(=O)(=O)O)cc3cc(S(=O)(=O)O)cc(O)c23)c(N)cc1N=Nc1c(S(=O)(=O)O)cc2ccc(N=Nc3cc(S(=O)(=O)O)c(N)cc3N)cc2c1O` [compound 0048], the color rendering property entry in series [1] is “◯”. Besides, in series [2], the “water fastness ink jet paper A” value is “◯”, the “water fastness ink jet paper B” value is “◯” and the “water fastness plain paper” value is reported as “◯”. In series [3], the “light fastness (rank) ink jet paper A” value is 4 rank, the “light fastness (rank) ink jet paper B” value amounted to 5 rank and the “light fastness (rank) plain paper” value is 4-5 rank.

For the origin of these results see patent US6409810B1, “Water-soluble trisazo compounds, aqueous ink composition and colored article” (Nippon Kayaku Kabushiki Kaisha, priority 1997, dated 2002).
